Measured values published in ChEMBL document CHEMBL1130719, “Synthesis of 6(alpha, beta)-aminocholestanols as ergosterol biosynthesis inhibitors” (Bioorg Med Chem Lett, 1998).

Key:
Type in all cases: functional, organism-based
Saccharomyces cerevisiae [1] = experiment: Compound was tested for growth inhibition against Saccharomyces cerevisiae (ATCC 28383)
Candida albicans [2] = experiment: Compound was tested for growth inhibition against Candida albicans (CIP 1180.79)
Candida albicans [3] = experiment: Compound was tested for growth inhibition against Candida albicans (CIP 1180.79); Inactive over 250 uM
Saccharomyces cerevisiae [4] = experiment: Compound was tested for growth inhibition against Saccharomyces cerevisiae (ATCC 28383); Inactive over 250 uM
Saccharomyces cerevisiae [5] = experiment: Compound was tested for growth inhibition against Saccharomyces cerevisiae (ATCC 28383); Slow development (>80-<100 uM)
Candida albicans [6] = experiment: Compound was tested for growth inhibition against Candida albicans (CIP 1180.79); Slow development (>80-<100 uM)

Row | SMILES | IC50 (Saccharomyces cerevisiae [1]) [µM] | IC50 (Candida albicans [2]) [µM] | IC50 (Candida albicans [3]) | IC50 (Saccharomyces cerevisiae [4]) | IC50 (Saccharomyces cerevisiae [5]) [µM] | IC50 (Candida albicans [6]) [µM]
1 | CC(C)CCC[C@@H](C)C1CC[C@H]2[C@@H]3C[C@H](N)[C@H]4C[C@@H](O)CC[C@]4(C)[C@H]3CC[C@]12C (some centres not stated) | < 15 | < 31 | – | – | – | –
2 | CC(C)CCC[C@@H](C)C1CC[C@H]2[C@@H]3C[C@H]([N+](=O)[O-])[C@H]4C[C@@H](O)CC[C@]4(C)[C@H]3CC[C@]12C (some centres not stated) | – | – | Not Active | Not Active | – | –
3 | CC(=O)N[C@H]1C[C@@H]2[C@H](CC[C@]3(C)C([C@H](C)CCCC(C)C)CC[C@@H]23)[C@@]2(C)CC[C@H](O)C[C@H]12 (some centres not stated) | – | – | – | – | > 80 | > 80
4 | CC(=O)N[C@@H]1C[C@@H]2[C@H](CC[C@]3(C)C([C@H](C)CCCC(C)C)CC[C@@H]23)[C@@]2(C)CC[C@H](O)C[C@H]12 (some centres not stated) | – | – | – | – | > 80 | > 80
5 | CC(C)CCC[C@@H](C)C1CC[C@H]2[C@@H]3C[C@@H](N)C4C[C@@H](O)CC[C@]4(C)[C@H]3CC[C@]12C (some centres not stated) | < 15 | < 7 | – | – | – | –
6 | CC(C)CCC[C@@H](C)C1CC[C@H]2[C@@H]3C[C@@H]([N+](=O)[O-])[C@H]4C[C@@H](O)CC[C@]4(C)[C@H]3CC[C@]12C (some centres not stated) | – | – | Not Active | Not Active | – | –
